“And” between values parts separate entries of the source, which are not always exact repeats. Equal entries are not always repeated.
Tests used:
[1] = target: T1, NaV1.7 (Homo sapiens, UniProt Q15858); test: Automated patch clamp (Qube 384), internal block of NaV1.7 in HEK293 cells; format: cell-based; conditions: compound in internal solution, read-out: Nav1.7 Intracellular Inhibition (IC50)
T1 construct: expressed in transfected cells; tetracycline-inducible, kept under hygromycin and blasticidin
Description: (§1) NaV1.7 was expressed in HEK293 cells upon induction with tetracycline. Cells were cultured in DMEM containing 10% dialyzed Fetal Bovine Serum (VWR, Radnor, Pa.), 1% Glutamax (VWR, Radnor, Pa.), 1% Penicillin-Streptomycin (VWR, Radnor, Pa.), 100 mg/L Hygromycin (Thermo Fisher Scientific, Waltham, Mass. and 5 mg/L Blasticidin (Alfa Aesar, Haverhill, Mass.). Cells were grown and maintained at 37° C. in a humidified environment containing 10% CO2 in air. Cells were detached from the culture flask for passage and harvested using 0.05% Trypsin-EDTA (Thermo Fisher Scientific, Waltham, Mass.). To induce NaV1.7, cells were induced with tetracycline (0.1-1 μg/mL, IBI Scientific, Peosta, Iowa) the day before recording.
(§2) Before experiments, cells were washed with DPBS (VWR, Radnor, Pa.), digested with Detachin (VWR Radnor, Pa.) and then triturated 10 times in CHO Serum-Free Media (VWR Radnor, Pa.) to resuspend the cells and to break apart cell aggregates. Cells were counted and the final concentration was set at 2-5 million cells per mL.
(§3) The intracellular solution contained the following: 140 mM CsF, 1 mM/5 mM EGTA/CsOH, 10 mM HEPES, 10 mM NaCl, adjusted to pH 7.3 with CsOH, and osmolality to 320 with sucrose. The external solution contained the following: 145 mM NaCl, 4 mM KCl, 1 mM MgCl2, 2 mM CaCl2, 10 mM HEPES, 10 mM Glucose, adjusted to pH 7.4 with CsOH and osmolality to 305 with sucrose. All chemicals are from Sigma-Aldrich, St. Louis, Mo. In order to test the degree of internal block by test compounds, the compounds were dissolved in internal solution at the indicated test concentration. […] In order to test the degree of external block by test compounds the compounds were dissolved in external solution at the indicated test concentration.
(§4) Automated Patch Clamps were performed on Qube 384 (Sophion Bioscience, Woburn Mass.) with multihole Qchips at a temperature setting of 22 degrees. The whole cells configuration was formed with default Qube seal and break-in parameter. The membrane potential was held at −100 mV before the voltage protocol began. Two voltage protocols were followed.
(§5) Step 1: Cells were held at −100 mV with a depolarized pulse to −20 mV for 10 ms, the interval was set at 5 s. Currents were corrected by default leak subtraction from every pulse. The duration was set at 5 mins.
(§6) Step 2: Cells were held at −100 mV with a depolarized pulse to −20 mV for 10 ms. The frequency was 5 Hz. Currents were corrected by leak subtraction calculated before step 2. The duration was set at 4 mins.
After Step 2, the Qchip was removed from the recording chamber. The internal solution was changed with solutions containing test compounds. Qchips were held at −100 mV without pulsing after being replaced in the recording chamber. The total solution switching time was 8 minutes. After the internal solution exchange, Cells were recorded and step 2 for repeated for 10 minutes.
Data analysis was performed by Sophion Analyzer. Cells were filtered with minimum 50 MOhm seal resistance and minimum 5 nA starting current. The rundown of the currents was corrected with control cells (Non-Drug). The remaining was calculated by averaging last 3 points in the end of experiments. The base line was calculated as the average of last 3 points of Step 2. IC50 curves were plotted with DR-plots/Hill function (a dose-response plot with a Hill fit). Data analysis was performed by Sophion Analyzer.

[2] = target: T1, NaV1.7; test: Automated patch clamp (Qube 384), external block of NaV1.7 in HEK293 cells; format: cell-based; conditions: compound in external solution, read-out: Nav1.7 Extracellular Inhibition (IC50)
Description: as §1, §2, §3, §4, §5, §6
After Step 2, the external solution was changed with solutions containing test compounds. Qchips were held at −100 mV without pulsing. The total solution switching time was 8 minutes. After the external solution exchange, cells were recorded using the same procedure as step 2 for 10 minutes.
Data analysis was performed by Sophion Analyzer. Data were corrected with control cells (Non-Drug). The IC50 data were plotted with DR-plots/Hill function (a dose-response plot with a Hill fit).

T1 sequence (Q15858 whole entry): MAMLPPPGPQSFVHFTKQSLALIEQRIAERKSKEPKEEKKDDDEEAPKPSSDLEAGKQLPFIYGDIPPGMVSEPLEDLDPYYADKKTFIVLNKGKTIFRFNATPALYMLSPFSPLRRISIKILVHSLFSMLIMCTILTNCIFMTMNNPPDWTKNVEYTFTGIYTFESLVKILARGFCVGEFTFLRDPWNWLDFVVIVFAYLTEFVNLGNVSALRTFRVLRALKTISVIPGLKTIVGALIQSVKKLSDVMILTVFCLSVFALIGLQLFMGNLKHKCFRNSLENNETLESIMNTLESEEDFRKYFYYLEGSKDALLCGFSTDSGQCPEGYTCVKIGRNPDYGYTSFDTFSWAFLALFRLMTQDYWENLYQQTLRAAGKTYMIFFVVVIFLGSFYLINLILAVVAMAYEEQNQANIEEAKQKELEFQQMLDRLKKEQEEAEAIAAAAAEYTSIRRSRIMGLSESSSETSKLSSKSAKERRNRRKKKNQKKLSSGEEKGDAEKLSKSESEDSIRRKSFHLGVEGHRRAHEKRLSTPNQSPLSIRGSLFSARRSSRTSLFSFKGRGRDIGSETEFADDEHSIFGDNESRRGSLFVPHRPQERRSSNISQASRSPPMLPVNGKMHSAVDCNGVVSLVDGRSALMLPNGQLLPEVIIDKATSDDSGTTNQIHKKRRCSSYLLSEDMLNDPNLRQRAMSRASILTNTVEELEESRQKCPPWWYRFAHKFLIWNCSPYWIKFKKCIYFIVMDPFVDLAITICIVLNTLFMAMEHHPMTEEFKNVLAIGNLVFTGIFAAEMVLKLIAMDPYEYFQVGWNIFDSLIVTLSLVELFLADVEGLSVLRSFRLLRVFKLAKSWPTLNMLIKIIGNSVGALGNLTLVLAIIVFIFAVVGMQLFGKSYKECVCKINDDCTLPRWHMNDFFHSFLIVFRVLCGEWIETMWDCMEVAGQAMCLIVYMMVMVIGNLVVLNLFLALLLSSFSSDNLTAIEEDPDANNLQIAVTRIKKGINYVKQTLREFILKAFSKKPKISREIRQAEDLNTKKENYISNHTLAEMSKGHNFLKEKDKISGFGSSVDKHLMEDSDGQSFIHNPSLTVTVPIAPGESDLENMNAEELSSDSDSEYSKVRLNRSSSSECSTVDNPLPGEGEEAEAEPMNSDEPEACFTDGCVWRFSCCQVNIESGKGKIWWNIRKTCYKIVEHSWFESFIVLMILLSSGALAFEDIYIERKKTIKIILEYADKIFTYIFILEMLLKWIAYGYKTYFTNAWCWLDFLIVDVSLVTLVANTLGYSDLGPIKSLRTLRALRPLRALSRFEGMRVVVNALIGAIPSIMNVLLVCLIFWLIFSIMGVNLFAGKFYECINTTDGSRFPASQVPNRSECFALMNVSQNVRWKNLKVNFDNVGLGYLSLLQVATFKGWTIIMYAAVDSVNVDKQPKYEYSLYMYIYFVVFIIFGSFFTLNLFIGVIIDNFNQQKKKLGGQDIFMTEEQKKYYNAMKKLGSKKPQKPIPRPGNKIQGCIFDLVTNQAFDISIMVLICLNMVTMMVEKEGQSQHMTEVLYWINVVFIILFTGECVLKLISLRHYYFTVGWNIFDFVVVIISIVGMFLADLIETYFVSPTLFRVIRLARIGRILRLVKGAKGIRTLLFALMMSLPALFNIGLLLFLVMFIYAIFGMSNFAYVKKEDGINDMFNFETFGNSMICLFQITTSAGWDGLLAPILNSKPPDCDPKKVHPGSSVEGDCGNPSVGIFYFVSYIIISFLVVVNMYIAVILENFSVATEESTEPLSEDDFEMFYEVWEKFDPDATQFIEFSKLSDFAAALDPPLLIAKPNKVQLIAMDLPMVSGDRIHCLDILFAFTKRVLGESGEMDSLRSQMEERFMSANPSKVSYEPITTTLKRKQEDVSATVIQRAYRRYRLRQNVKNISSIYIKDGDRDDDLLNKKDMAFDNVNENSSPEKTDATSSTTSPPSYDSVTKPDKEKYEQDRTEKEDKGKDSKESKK

| Structure (SMILES) | IC50 [1] | IC50 [2] |
| --- | --- | --- |
| CNC(=O)Cc1ccc[n+](CC(=O)Nc2c(C)cccc2C)c1 [Compound 33] | 1 to 3 µM | > 100 µM |
| Cc1cccc(C)c1NC(=O)C[n+]1cccc(Cc2ccccc2)c1 [Compound 34] | < 1 µM | < 10 µM |
| Cc1cccc(C)c1NC(=O)C[n+]1cccc(S(C)(=O)=O)c1 [Compound 46] | 3 to 10 µM | 10 to 30 µM |
| Cc1cccc(C)c1NC(=O)C[n+]1cccc(S(=O)(=O)N(C)C)c1 [Compound 47] | 1 to 3 µM | 10 to 30 µM |
| CCNc1ccc[n+](CC(=O)Nc2c(C)cccc2C)c1 [Compound 50] | 1 to 3 µM | 30 to 100 µM and > 100 µM |
| Cc1cccc(C)c1NC(=O)C[n+]1cccc(N2CCCC2)c1 [Compound 51] | < 1 µM | > 100 µM |
| Cc1cccc(C)c1NC(=O)C[n+]1cc2ccccc2n1C [Compound 54] | 3 to 10 µM | 30 to 100 µM |
| Cc1cccc(C)c1NC(=O)C[n+]1cccc(C(F)(F)F)c1 [Compound 66] | 1 to 3 µM | 30 to 100 µM |
| Cc1cccc(C)c1NC(=O)C[n+]1cccn1CC#N [Compound 69] | 10 to 30 µM | > 100 µM |
| Cc1cccc(C)c1NC(=O)C[n+]1cccn1C1CCCC1 [Compound 71] | < 1 µM | > 100 µM |
| Cc1cccc(C)c1NC(=O)C[n+]1cccn1CC1CC1 [Compound 73] | 1 to 3 µM | > 100 µM |
| CCOC(=O)CCCn1ccc[n+]1CC(=O)Nc1c(C)cccc1C [Compound 75] | < 1 µM | > 100 µM |
| CCOC(=O)Cn1cc(C)c[n+]1CC(=O)Nc1c(C)cccc1C [Compound 76] | 3 to 10 µM | > 100 µM |
| Cc1cccc(C)c1NC(=O)C[n+]1cc(F)cc(-c2ccccc2)c1 [Compound 77] | < 1 µM | 10 to 30 µM |
| CCCn1c(C)cc[n+]1CC(=O)Nc1c(C)cccc1C [Compound 81] | 1 to 3 µM | > 100 µM |
| CCCCn1ccc[n+]1CC(=O)Nc1c(C)cccc1C [Compound 83] | 1 to 3 µM | > 100 µM |
| CCOC(=O)c1cc(C)[n+](CC(=O)Nc2c(C)cccc2C)n1C [Compound 84] | 3 to 10 µM | > 100 µM |
| COC(=O)c1c(F)c[n+](CC(=O)Nc2c(C)cccc2C)cc1F [Compound 89] | 3 to 10 µM | > 100 µM |
| Cc1cccc(C)c1NC(=O)C[n+]1c(C)cc(C)n1C [Compound 94] | < 1 µM | 30 to 100 µM |
| CCn1ccc(C)[n+]1CC(=O)Nc1c(C)cccc1C [Compound 95] | 1 to 3 µM | > 100 µM |
| COc1cc(OC)c[n+](CC(=O)Nc2c(C)cccc2C)c1 [Compound 98] | 1 to 3 µM | > 100 µM |
| CCCn1ccc(C)[n+]1CC(=O)Nc1c(C)cccc1C [Compound 101] | 3 to 10 µM | > 100 µM |
| Cc1cccc(C)c1NC(=O)C[n+]1cc(OCc2ccccc2)ccc1Cl [Compound 103] | 3 to 10 µM | 30 to 100 µM |
| CCn1c(C)cc[n+]1CC(=O)Nc1c(C)cccc1C [Compound 104] | 1 to 3 µM | > 100 µM |
| Cc1cccc(C)c1NC(=O)C(Cc1ccccc1)[n+]1ccccc1 (stereo not drawn) [Compound 106] | 1 to 3 µM | > 100 µM |
| Cc1cccc(C)c1NC(=O)C(CC(C)C)[n+]1ccccc1 (stereo not drawn) [Compound 108] | 1 to 3 µM | > 100 µM |
| Cc1cccc(C)c1NC(=O)Cn1ccc[n+]1CC(=O)Nc1c(C)cccc1C [Compound 109] | < 1 µM | > 100 µM |
